From patent US20150087598A1, “TREATING MUC1-EXPRESSING CANCERS WITH HELICASE INHIBITORS” (DANA-FARBER CANCER INSTITUTE, INC., priority 2012, published 2015)
Where two headings read alike, the source gives them in different places.

What was measured:
MUC1-C [1] = test: Immunoblot of MUC1-C in growth factor-stimulated MCF-10A cells; format: cell-based, Human; settings: for HRG-induced increase in MUC1-C abundance: MCF-10A cells + HRG, indicated concentrations; for EGF- and HRG-induced MUC1-C translation: growth factor stimulation (summary in discussion)
Protocol: (§1) Human MCF-10A mammary epithelial cells were grown in mammary epithelial growth medium (MEGM, Lonza). Human MCF-7 and MDA-MB-468 breast cancer cells were cultured in Dulbecco's modified Eagle's medium with 10% heat-inactivated fetal bovine serum (FBS), 100 U/ml penicillin, 100 μg/ml streptomycin and 2 mM L-glutamine. Human BT-549 cells were maintained in RPMI-1640 medium (ATCC) with 10% FBS and 0.023 IU/ml insulin. Cells were treated with EGF (Sigma), heregulin beta 1 (HRG; Neomarkers), cycloheximide (CHX, Calbiochem), U0126 (Calbiochem), LY294002 (Caymam Chemical Company), BEZ-235 (Selleckchem) and rapamycin Cell Signaling Technology). In certain experiments, MCF-10A cells were serum-starved overnight, and inhibitors were added 2.5 h prior to EGF or HRG treatment.
(§2) Lysates from subconfluent cells were immunoblotted with anti-MUC1-C(AbS; Neomarkers), anti-β-actin (Sigma), anti-p-AKT, anti-AKT, anti-p-ERK1/2, anti-ERK1/2, anti-p-S6K1, anti-S6K1, anti-PCDC4, anti-eIF4E, eIF4A (Cell Signaling Technology) and anti-EGFR (Santa Cruz Technology) Immune complexes were detected with horseradish peroxidase-conjugated secondary antibodies and enhanced chemiluminescence (Amersham Biosciences). Intensity of certain signals was determined by densitometric scanning.

CYP2C9 = CYP2C9 (Homo sapiens, UniProt P11712); settings: background statement; cited from earlier work
Sequence of CYP2C9 (P11712 whole entry): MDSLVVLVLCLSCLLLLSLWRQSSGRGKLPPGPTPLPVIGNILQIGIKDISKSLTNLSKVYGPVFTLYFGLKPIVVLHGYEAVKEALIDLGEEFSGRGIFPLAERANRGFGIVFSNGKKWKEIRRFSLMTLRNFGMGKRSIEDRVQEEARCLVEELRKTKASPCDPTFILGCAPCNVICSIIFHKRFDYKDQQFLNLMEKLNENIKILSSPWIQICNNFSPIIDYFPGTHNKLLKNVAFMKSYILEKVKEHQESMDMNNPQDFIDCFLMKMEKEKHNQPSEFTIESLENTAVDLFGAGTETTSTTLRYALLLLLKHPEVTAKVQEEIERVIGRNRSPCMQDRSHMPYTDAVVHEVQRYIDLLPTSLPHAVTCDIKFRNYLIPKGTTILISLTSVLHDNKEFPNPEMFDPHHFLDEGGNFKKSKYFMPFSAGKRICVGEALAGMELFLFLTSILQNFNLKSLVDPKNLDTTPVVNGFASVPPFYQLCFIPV

MUC1-C [2] = test: Immunoblot of MUC1-C in MCF-7 breast cancer cells; format: cell-based, Human; settings: MCF-7 cells; for MUC1-C abundance: 100 nM
Protocol: as §1, §2

MUC1-C [3] = test: Immunoblot of MUC1-C in MDA-MB-468 breast cancer cells; format: cell-based, Human; settings: MDA-MB-468 cells, 10 and 100 nM
Protocol: as §1, §2

MCF-10A cells = test: EGF-stimulated MCF-10A cell growth, viable cell number by trypan blue exclusion; format: cell-based, Human; settings: 100 nM, 24 h with EGF, reseeded, counted at 48 h
Excerpt: FIGS. 6A-D. MUC1-C translation is inhibited by CR-1-31-B in MCF-10A cells. (FIG. 6A) Structures of the indicated compounds.

MUC1-C [4] = test: Immunoblot of MUC1-C in BT-549 breast cancer cells; format: cell-based, Human; settings: BT-549 cells, 100 nM, data not shown
Protocol: as §1, §2

[5] = tested on: mitogen-activated protein kinase kinase (MEK); settings: background statement; cited from earlier work
[6] = cited from earlier work
MUC1 mRNA = MUC1 mRNA by qRT-PCR in MCF-10A cells; format: cell-based, Human; settings: EGF stimulation
Protocol: Total RNA was isolated from cells using an RNeasy Mini kit (Qiagen). cDNAs were synthesized with 0.3-1 μg RNA using the first-strand cDNA synthesis kit (Invitrogen). The SYBR green qPCR assay kit (Applied Biosystems) was used with 5 μl of 20-fold diluted cDNA from each sample, and the samples were amplified with the ABI Prism 7300 machine (Applied Biosystems).

MUC1 gene promoter = test: MUC1 promoter luciferase assay in MCF-10A cells; format: cell-based, Human; settings: pMUC1-Luc, EGF 100 ng/ml 5 h
Protocol: Control pGL3 or pGL3-MUC1-promoter constructs were transfected with the Renilla plasmid into cells in the presence of Lipofectamine. At 24 h after transfection, cells were serum-starved overnight, and then treated with EGF (100 ng/ml) for 5 h. Luciferase reporter activity was measured using the Promega Dual Glo kit.

cyclin D1, MYC and MCL1 = settings: literature; cited from earlier work
cancer cells [7] = settings: literature; cited from earlier work
cancer cells [8] = settings: literature, preclinical studies, cited from earlier work
PDCD4 = test: Immunoblot of PDCD4 in MCF-10A cells; format: cell-based, Human; settings: 100 nM silvestrol
Protocol: as §1, §2

eIF4A RNA helicase = settings: literature; cited from earlier work
β-actin = β-actin abundance in growth factor-stimulated MCF-10A cells; format: cell-based, Human
Protocol: as §2

[9] = MCF-10A cells + EGF, CHX 10 ng/ml, U0126 10 μM, LY294002 50 μM, BEZ235 250 or 500 nM, rapamycin 100 nM, silvestrol, CR-1-31-B, CR-1-30-B indicated concentrations 24 h

Cn1c(=O)n(-c2ccc(C(C)(C)C#N)cc2)c2c3cc(-c4cnc5ccccc5c4)ccc3ncc21 [BEZ235]
EGF-induced increase in MUC1-C abundance (MUC1-C [1]; [9]): blocked

O=c1cc(-c2ccc(O)cc2)oc2cc(O)cc(O)c12 [Apigenin, 4′,5,7-trihydroxyflavone]
inhibition of CYP2C9 (CYP2C9): potent inhibitor

CR-1-31-B
EGF-induced increase in MUC1-C abundance (MUC1-C [1]; [9]): dose-dependent decrease
HRG-induced increase in MUC1-C abundance (MUC1-C [1]; 24 h): blocked
EGF- and HRG-induced MUC1-C translation (MUC1-C [1]; MCF-10A cells): similarly blocks
MUC1-C abundance (MUC1-C [2]): downregulation
MUC1-C abundance (MUC1-C [3]): decreases
growth of MCF-10A cells in response to EGF (MCF-10A cells): attenuated
MUC1-C expression (MUC1-C [4]): decreases

N#CC(=C(/N)Sc1ccccc1N)/C(C#N)=C(\N)Sc1ccccc1N [U0126]
EGF-induced increase in MUC1-C abundance (MUC1-C [1]): not ERK1/2, blocked

C[C@@H]1C[C@@H]([C@H](O)CC2CC(=O)NC(=O)C2)C(=O)[C@@H](C)C1 [cycloheximide]
EGF-induced increase in MUC1-C abundance (MUC1-C [1]; [9]): blocked

COc1cccc(-c2cc(=O)c3ccccc3o2)c1N [PD98059, 2-(2′-amino-3′-methoxyphenyl)-oxanaphthalen-4-one]
inhibition of MEK [5]: potent inhibitor

O=c1c(O)c(-c2ccc(O)cc2)oc2cc(O)cc(O)c12 [Kaempferol]
solubility in water [6]: slightly soluble

EGF: growth factor (Sigma) stimulating EGFR
increase in MUC1-C expression compared to baseline levels (MUC1-C [1]; MCF-10A cells, growth factor stimulation (EGF 100 ng/ml, HRG 10 ng/ml), 24 h): 65 fold
effect of growth factor stimulation on MUC1-C levels (MUC1-C [2]; EGF 100 ng/ml, HRG data not shown): no apparent effect
MUC1 mRNA levels (MUC1 mRNA): no apparent effect
activation of the MUC1 gene promoter (MUC1 gene promoter): no significant effect

COC(=O)[C@H]1[C@@H](O)[C@@]2(O)c3c(OC)cc(O[C@@H]4O[C@@H]([C@H](O)CO)CO[C@H]4OC)cc3O[C@@]2(c2ccc(OC)cc2)[C@@H]1c1ccccc1 [silvestrol]
EGF-induced increase in MUC1-C abundance (MUC1-C [1]; [9]): blocked
HRG-induced increase in MUC1-C abundance (MUC1-C [1]; 24 h): dose-dependent inhibitory effects
EGF- and HRG-induced MUC1-C translation (MUC1-C [1]; MCF-10A cells): substantially blocked
MUC1-C levels (MUC1-C [2]; 10 nM): limited effect
MUC1-C abundance (MUC1-C [2]): more pronounced decrease
production of cyclin D1, MYC and MCL1 (cyclin D1, MYC and MCL1): decreases
activity against cancer cells growing in vitro (cancer cells [7]): active
anti-tumor activity in animal models (cancer cells [8]): promising anti-tumor activity
toxicity in animal models (cancer cells [8]): little toxicity
anti-tumor activity in animal models (cancer cells [8]; listed as Silvestrol): active
MUC1-C abundance (MUC1-C [3]): clearly detectable
PDCD4 abundance (PDCD4): marked decrease
activity against eIF4A RNA helicase (eIF4A RNA helicase): potent inhibitor
abundance of β-actin (β-actin): little effect
